Data set [1] has as its system Jackson SPF or germ-free C57BL/6 WT mice. The experiment in a line: Fecal short chain fatty acids and 5-ASA in SPF or germ-free mice treated with SAS or BSD. The format is in vivo, mouse. How it is done: (§1) Gnotobiotic C57BL/6 wild-type (WT) mice were bred and maintained at WCM Gnotobiotic Mouse facility. Specific pathogen free (SPF) C57BL/6 WT mice were ordered from Jackson Laboratory. C57BL/6 Gpr109a^−/− mice were obtained from Marcel van den Brink laboratory and were bred and maintained under SPF conditions at WCM.
(§2) For induction of chemical colitis, 2% dextran sulfate sodium (DSS) (wt/vol) (M.W. 40,000-50,000; Affymetrix, Santa Clara, CA) was added to drinking water and administered ad libitum for 7 days. Mice were then monitored daily for weight loss and survival. Mouse Lipocalin-2 was measured in the cecal content supernatant using sandwich enzyme-linked immunosorbent assay (R&D Systems, Minneapolis, MN).
(§3) To determine drug fecal levels and its impact on fecal metabolites, fecal samples were treated with cold 80% methanol for 4 hours at 4° C. Samples were then centrifuged at 14,000 g for 20 min at 4° C. Supernatants were transferred to a sterile 1.5 ml tube and stored at-80° C. Bacterial supernatants were treated with 4X volume of the 80% methanol. Polar metabolomic analysis was performed by the WCM Proteomics and Metabolomics Core for target polar metabolomics analysis by LC-MS. Metabolites were identified using an in-house library established using chemical standards. Identification required exact mass (within 5ppm) and standard retention times. To determine short chain fatty acids (SCFAs) fecal levels, target metabolomics were performed using liquid chromatography-quadruple-time of flight mass spectrometry as previously described^62. Relative metabolite quantitation was performed based on peak area for each metabolite evaluated and normalized by sample weight.

The test system of data set [2] is patients with a clinical diagnosis of IBD and ASAS-defined SpA. The experiment in a line: Prospective clinical study of SAS therapy in IBD-pSpA subjects (BASDAI, ASDAS, HBI, CRP). The format is in vivo, human. More on the design: proportion of treated patients who tolerated increase: dose or concentration left out as unconfirmed. An excerpt:
Eligible patients of any gender were between the ages of 18-80 with ulcerative colitis (UC) or Crohn's disease (CD) and ASAS criteria of pSpA defined as the presence of peripheral arthritis, enthesitis or dactylitis^50. Patients with active SpA, defined as ASDAS>1.3 and/or BASDAI≥4, were eligible to participate^51, 52. […] Participants who declined therapy or were intolerant of SAS were followed as standard of care controls. […] All patients provided voluntary informed consent and the study ethics was approved by the Weill Cornell institutional review board (IRB 1504016115).
The primary endpoint of our analysis was clinical response in BASDAI, defined conservatively as a reduction in BASDAI of >2. Secondary endpoints were clinical response in ASDAS and Harvey Bradshaw Index (HBI) for CD defined as reduction in ASDAS of ≥1.1 at week 12 post-study initiation^51 or a decrease in HBI of ≥3^54, respectively. Exploratory analysis included absolute reduction in BASDAI, ASDAS, CRP, and HBI.
To determine significance of […] variables, Student's t test was applied if two groups were compared, otherwise two-way ANOVA test was used. For non-parametric data, Wilcoxon matched-pairs signed-rank test was calculated when paired analyses were carried, otherwise Mann-Whitney test was applied. If required, Bonferroni or Tukey tests were applied for multiple comparison correction. Metagenomic and transcriptomic analyses were performed in R studio (Boston, MA) using R package ‘phyloseq’^66 and plots were constructed in ‘ggplot2’ or GraphPad (San Diego, CA). Differential gene expression analysis was performed with DESeq2^72. Differential taxa or pathway abundance was assessed using linear discriminant analysis (LDA) effect size (LEfSe)^31. Correlation between two continuous variables (e.g. fecal drug levels, Δ BASDAI, alpha diversity) was determined with linear regression models. For discriminating responders from non-responders, we fit linear regression models on the relative abundances of select taxa and constructed corresponding ROC curves. Area under the curve (AUC) and P values were computed using R.

The test system of data set [3] is fecal samples of IBD-pSpA subjects. The experiment in a line: Fecal metabolomics of IBD-pSpA subjects treated with SAS. Format: in vivo, human. The settings on record: responders. How it is done:
as §3

The subject of data set [4] is DSS-induced colitis. The experiment in a line: DSS-induced colitis in SPF WT mice. The format is in vivo, mouse. The settings on record: 2% DSS 7 days, SAS 300 mg/kg/day. How it is done: as §1, §2
(§4) All animal experiments were performed with 6-8-week-old WT, Gpr109a^−/− and heterozygous littermate mice. Both female and male mice were used with random and equal assignment of same sex to each experimental group. All animal studies were carried out in accordance with protocols approved by the Institutional Animal Care and Use Committee at WCM.

The test system of data set [5] is butyrate receptor Gpr109a. The experiment in a line: DSS-induced colitis in Gpr109a-deficient and heterozygous mice. Format: in vivo, mouse. The procedure:
as §1, §2, §4

Data set [6] concerns gnotobiotic mice colonized with IBD-pSpA donor microbiomes. The experiment in a line: Gnotobiotic mice colonized with responder or non-responder microbiomes: fecal butyrate and DSS colitis. Format: in vivo, mouse. The procedure:
as §1, §2
For gnotobiotic experiments, germ-free (GF) mice were gavaged with 1 g of homogenized patient fecal samples diluted in 10 ml of reduced PBS under anaerobic conditions, as previously described^53. Mice gavaged with ATCC 27768 F. prausnitzii received 1×10^9 colony forming units (CFU) grown under anaerobic conditions at log-phase in Yeast Casitone Fatty Acids Broth with Carbohydrate media (YCFAC, Anaerobe Systems, Morgan Hill, CA).
as §3

The subject of data set [7] is F. prausnitzii ATCC 27768. As to the kind of experiment: F. prausnitzii in vitro culture with sulfapyridine (growth, RNA-seq, qPCR, mass spectrometry). The format is cell-based, Faecalibacterium prausnitzii. How it is done:
as §3
(§5) CFU from F. prausnitzii cultures were assessed anaerobically in YCFA agar. Growth was measured by absorbance, OD600, on SpectraMax Plus (Molecular Devices, San Jose, CA). RNA isolation was performed using RNeasy PowerMicrobiome kit (Qiagen, Hilden, Germany) following the manufacture instructions. RNA was then quantified by Nanodrop prior to reverse transcription with qScript cDNA SuperMix kit (Quantabio, Beverly, MA) or RNAseq library preparation.
RNA-seq library preparation and sequencing were performed by WCM Genomics Core. For library preparation, the Illumina Stranded Total RNA Prep kit was used. High-throughput sequencing was performed using the PE 2×50 cycles protocol in the NovaSeq 6000 Illumina platform targeting 10 million reads/sample. Bioinformatics and statistical analysis were then performed by the WCM Bioinformatics Core. Samples were aligned with STAR^67 to NCBI reference genome GCF_000154385.1 (F. prausnitzii M21/2). Quality control was performed with QoRTs^68 on aligned BAM files. Counts per gene were then calculated using featureCounts^69. BioCyc^70 analyses were performed with clusterProfiler to identify pathways/gene sets that are overrepresented among the differentially expressed genes.
(§6) qPCR was performed on an Applied BioSciences Quant Studio 6 Flex Real-time PCR (Applied Biosystems, Waltham, MA) using PerfeCTa SYBR Green Fast mix, Low ROX (Quantabio, Beverly, MA). The following primers were used: for 16S rRNA gene −515F 5′ […] 3′ (SEQ ID NO:1), −926R 5′ […] 3′ (SEQ ID NO:2)^71 F. prausnitzii but gene F: 5′ […] 3′ SEQ ID NO:3), R: 5′ […] 3′ (SEQ ID NO:4) and E. rectale but gene F: 5′ […] 3′, SEQ ID NO:5) R: 5′ […] 3′ (SEQ ID NO:6) (designed on the PrimerQuest Tool from IDT, Coralville, IA). The thermocycler program was as follows: initial cycle of 95° C. for 60 s, followed by 40 PCR cycles at 95° C. for 5 s, 60° C. for 15 s, 72° C. for 15 s. Relative levels of the but target gene was determined by calculating the Δ Ct to the conserved 16S rRNA gene expression.

For data set [8], the system named is E. rectale DSM 17629. The experiment in a line: E. rectale in vitro culture with sulfapyridine (but expression). The format is cell-based, Eubacterium rectale. As to conditions: SP 1 mM. The procedure:
as §5, §6

[9] abbreviates: SPF WT mice, 300 mg/kg/day, day 14.
Where [10] appears, read: RNA-seq, SP 1 mM vs NaOH vehicle.

Molecules are shown by their SMILES.

Consider `O=C(O)CCNC(=O)c1ccc(/N=N/c2ccc(O)c(C(=O)O)c2)cc1` [BSD, balsalazide], for which, in data set [1] (setting [9]), the “fecal butyrate levels compared to H2O vehicle controls” value is recorded as “numerically higher”. Besides, the “conversion of prodrug by the mouse gut microbiome (5-ASA detection in fecal samples)” value in data set [1] (SPF mice, day 7 post-treatment initiation) was “efficiently converted”.

With `O=C(O)c1cc(/N=N/c2ccc(S(=O)(=O)Nc3ccccn3)cc2)ccc1O` [SAS, sulfasalazine], the “proportion of treated patients who tolerated increase” value in data set [2] (22 patients treated with SAS, n=11) is reported as 50%. Besides, in data set [2] (baseline to week 12), the “absolute score reduction in BASDAI compared to controls” value is “significant absolute score reduction” and the “difference in CRP alone compared to controls” value is “no difference”. In addition, in data set [2] (comparison between SAS doses), the “reduction in all joint disease activity scores, 2 mg versus 4 mg daily” value is listed as “equivalent reduction”. Moreover, the “impact of baseline biologic or mesalamine therapy on change in disease activity scores following SAS treatment” value in data set [2] (human, in vivo) was “did not impact”. Also, the “proportion with clinical improvement using ASDAS” value in data set [2] (week 12, controls 0%, P=.07) is listed as 28.6%. In addition, in data set [2] (week 12, controls 9.1%, P=.04), the “proportion of patients achieving clinical response in joint symptoms (reduction in BASDAI of >2)” value is 45.4%. Moreover, the “thymine fecal abundance after SAS treatment” value in data set [3] (P=.016) is on record as “significantly reduced”. Further, in data set [3] (P=.05), the “fecal deoxyuridine levels after SAS treatment” value was “concomitant increase”. In data set [1] (GF mice), the “fecal butyrate levels post-treatment” value was “no changes”. Moreover, in data set [1] (setting [9]), the fecal acetate entry is “no significant change”, the “fecal butyrate levels compared to H2O vehicle controls” value was “significant increase” and the fecal propionate entry is “no significant change”. Besides, in data set [4], the “cecal lipocalin compared to control treated mice” value was “reduced”, the “mortality compared to control treated mice” value is recorded as “significantly reduced” and the “weight loss compared to control treated mice” value is “attenuated”. Besides, in data set [5] (mice deficient for Gpr109a), the “inflammation measured by lipocalin” value is recorded as “no effect”, the survival result is recorded as “no effect” and the weight loss entry is reported as “no effect”. Further, in data set [5] (mice heterozygous for Gpr109a), the “intestinal inflammation measured by cecal lipocalin” value was “decreased intestinal inflammation”, the survival entry was “significantly improved” and the weight loss result is on record as “reduced weight loss”. Besides, in data set [6] (mice colonized with non-responder microbiome), the “abundance of fecal butyrate following SAS treatment” value is reported as “not changed”. Besides, the “abundance of fecal butyrate following SAS treatment” value in data set [6] (mice colonized with responder microbiomes) is “higher abundance”. Also, in data set [6] (non-responder microbiomes, DSS), the weight loss entry is given as “not responsive”. Further, in data set [6] (responder microbiomes, DSS), the “intestinal inflammation measured by lipocalin” value is given as “reduced” and the weight loss entry is “reduced”.

Regarding `Nc1ccc(S(=O)(=O)Nc2ccccn2)cc1` [SP, sulfapyridine], the “effect of dose on F. prausnitzii growth” value in data set [7] (1 mM, anaerobic culture) is reported as “sub-inhibitory”. Besides, the “folT (folate ECF transporter S component FolT) expression” value in data set [7] (RNA-seq, SP 1 mM) was “upregulation”. For the same molecule, in data set [7] (setting [10]), the “acetate kinase (ackA) expression” value was “downregulation”, the but expression entry is on record as “concomitant increase” and the “phosphate acetyltransferase (pta) expression” value is “downregulation”. Besides, in data set [7] (bacterial cultures with SP), the thymidine kinase expression entry is given as “significant increase” and the thymine metabolites result is reported as “corresponding decrease”. In addition, the butyrate production entry in data set [7] (mass spectrometry after 22 and 46 hours of culture, both timepoints) is “robustly increased”. In addition, in data set [7] (qPCR, SP plus folate 566 μM), the “induction of but in response to SP on supplementation with folate” value is on record as “abrogated”. For the same molecule, the “expression of but in E. rectale” value in data set [8] is “did not change”.

For the origin of these results see patent US20250262251A1, “THERARONSTIC APPROACH FOR INFLAMMATORY BOWEL DISEASE-ASSOCIATED SPONDYLOARTHRITIS” (Cornell University, priority 2024, published 2025).
